# “Also recorded” adds a separate entry of the source.
# Tested on: Male Wistar rats
# Experiment: Conditioned avoidance response (CAR) test of antipsychotic activity
# Type: in vivo, rat
# Conditions: for ED50: Rattus norvegicus, ip, read-out: ED50 (escape response), dose required to produce 50% of the maximum response; for dose of compound required to produce 5 escapes / dose of compound required to produce 8 escapes: from fitted line
# Text: In the CAR paradigm, a rat is trained in a two chamber shuttle box to respond to a conditioned stimulus (auditory) by negative reinforcement. If the animal fails to move to the other chamber upon presentation of an auditory stimulus, a mild foot shock is applied to the side where the rat is located. The rat learns to avoid the mild foot shock by moving to the other chamber upon initiation of the auditory signal, termed a conditioned avoidance response. Crossing to the other chamber during administration of the shock is termed an escape response. If a rat fails to move to the other chamber even upon administration of the foot shock, the rat is considered to have an escape failure.
# Rats were trained every day for 3 to 4 weeks. In the training session, rats were placed in the CAR two-way shuttle box and the training period of 20 trials ensued. A trial consisted of a 10-sec presentation of an 80 dB white noise followed by a scrambled 0.6 mA foot shock lasting up to 20 sec. The inter-trial interval ranged from 20-60 sec. The rat learned to avoid shock by moving from one compartment to the other when the conditioned stimulus was presented (a conditioned avoidance response). A rat was deemed sufficiently trained if it avoided the shock when presented with the conditioned stimulus at least 19 times out of the 20 trials.
# On test day, trained animals were acclimated in the test room for 30 minutes prior to testing. They were then dosed with compound and placed in the CAR two-way shuttle box. In the test, 20 trials were performed on each rat. In each trial the conditioned stimulus was applied (10-sec presentation of 80 dB white noise), followed by the foot shock (a scrambled 0.6 mA foot shock lasting up to 20 sec). If the animal moved to the other chamber on presentation of the conditioned stimulus, it was scored as a conditioned avoidance response. If it moved upon presentation of the foot shock, it was scored as an escape. […] Antipsychotic efficacy is evident by an increase in the number of escapes. Data were analyzed by analysis of variance (ANOVA) followed by post-hoc comparisons with the Bonferroni Test when appropriate. An effect is considered significant if p<0.05. Outliers defined as two standard deviations above or below the mean were detected and were removed from all analysis. Results are reported as mean±SEM for number of escapes.
# Animals: Male Wistar rats from Harlan (Indianapolis, Ind.) were used in the study. Upon receipt, rats were assigned unique identification numbers and were group housed with 3 rats per cage in polycarbonate cages with micro-isolator filter tops. All rats were examined, handled, and weighed prior to initiation of the study to assure adequate health and suitability. The rats were maintained at 12/12 light/dark cycle with lights on at 6:00 A.M. The room temperature was maintained between 20 and 23° C. with a relative humidity maintained around 50%. Chow and water were provided ad libitum for the duration of the study. For each test, animals were randomly assigned across treatment groups. Each treatment group contained 10 animals at time of testing.
# Test Compounds: Risperidone (0.03, 0.1, 0.3, and 1 mg/kg) was dissolved in 10% DMSO and administered i.p. 30 min prior to testing at a dose volume of 1 ml/kg. […] The vehicle control group received 10% DMSO (i.p., 30 min pretreatment, 1 ml/kg) immediately followed by administration of sterile water (p.o., 1 ml/kg).
# Test Compounds: Olanzapine (0.3, 0.6, 1 and 3 mg/kg) was dissolved in 10% DMSO and administered i.p. 30 min prior to testing at a dose volume of 1 ml/kg.
# 10% DMSO (i.p., 30 min pretreatment, 1 ml/kg) immediately followed by administration of sterile water (p.o., 1 ml/kg) was used as the vehicle control group.
# Test Compounds: Risperidone (0.1, 0.3, and 1 mg/kg) was dissolved in 10% DMSO and administered i.p. 30 min prior to testing at a dose volume of 1 ml/kg.
# [1] = combination with R,R,R-DHTBZ 0.15 mg/kg vs olanzapine singly, rat
# [2] = olanzapine i.p. administered singly, rat
# [3] = combination with Compound 5-1 0.3 mg/kg vs risperidone singly, rat
# [4] = combination with R,R,R-DHTBZ 0.15 mg/kg vs risperidone singly, rat
# [5] = risperidone i.p. administered singly, rat
smiles,measurement,setting,value
"COc1cc2c(cc1OC)[C@H]1C[C@@H](O)[C@H](CC(C)C)CN1CC2 [R,R,R-DHTBZ, (2R,3R,11bR)-3-isobutyl-9,10-dimethoxy-1,3,4,6,7,11b-hexahydro-2H-pyrido[2,1-a]isoquinolin-2-ol]",number of escapes compared to vehicle,"R,R,R-DHTBZ 0.15 mg/kg p.o. administered singly, 30 min prior to testing, rat",did not increase; also recorded: did not result in changes from the vehicle results
same,number of escapes compared to vehicle,"R,R,R-DHTBZ 0.15 mg/kg p.o. administered singly, 30 min prior to testing, rat, listed as R,R,R DHTBZ",showed no antipsychotic activity
Cc1cc2c(s1)Nc1ccccc1N=C2N1CCN(C)CC1 [olanzapine],ED50,,1.2 mg/kg
same,reduction of the olanzapine dose,"combination with Compound 5-1 0.3 mg/kg vs olanzapine singly, rat",80%
same,decrease of ED50 of olanzapine,[1],approximately 2 fold
same,reduction of the olanzapine dose,[1],50%
same,dose necessary to show antipsychotic efficacy in the CAR paradigm,[2],1 mg/kg
same,dose of compound required to produce 5 escapes,[2],0.93 mg/kg
same,dose of compound required to produce 5 escapes,"olanzapine i.p. in combination with Compound 5-1 0.3 mg/kg p.o., rat",0.18 mg/kg
same,dose of olanzapine resulting in antipsychotic activity,"olanzapine i.p. with addition of Compound 5-1 0.3 mg/kg p.o., rat",0.6 mg/kg
same,dose of olanzapine resulting in antipsychotic activity,"olanzapine i.p. with addition of R,R,R-DHTBZ 0.15 mg/kg p.o., rat",0.6 mg/kg
Cc1nc2n(c(=O)c1CCN1CCC(c3noc4cc(F)ccc34)CC1)CCCC2 [risperidone],ED50,,0.14 mg/kg
same,decrease of risperidone dose required to produce 8 escapes,[3],approximately 7 fold
same,reduction of the risperidone dose,[3],86%
same,decrease of ED50 of risperidone,[4],approximately 6 fold
same,reduction of the risperidone dose,[4],83%
same,number of escapes compared to vehicle,"risperidone 0.1 mg/kg i.p. administered singly, 30 min prior to testing, rat",did not result in changes from the vehicle results; also recorded: did not increase
same,dose necessary to show antipsychotic efficacy in the CAR paradigm,[5],0.3 mg/kg
same,dose of compound required to produce 8 escapes,[5],0.26 mg/kg
same,dose of compound required to produce 8 escapes,"risperidone i.p. in combination with Compound 5-1 0.3 mg/kg p.o., rat",0.038 mg/kg
same,doses of risperidone resulting in antipsychotic activity,"risperidone i.p. with addition of Compound 5-1 0.3 mg/kg p.o., rat",0.1 mg/kg
"COc1cc2c(cc1OC)[C@H]1C[C@@H](CO)[C@H](CC(C)C)CN1CC2 [Compound 5-1, [(2R,3S,11bR)-9,10-Dimethoxy-3-(2-methylpropyl)-1H,2H,3H,4H,6H,7H,11bH-pyrido[2,1-a]isoquinolin-2-yl]methanol]",number of escapes compared to vehicle,"Compound 5-1 0.3 mg/kg p.o. administered singly, 60 min prior to testing, rat, 0.3 mg/kg",did not result in changes from the vehicle results; also recorded: showed no antipsychotic activity; also recorded: did not increase

# Reference: patent US9782398B2, “Pharmaceutical compositions comprising an antipsychotic drug and a VMAT2 inhibitor and uses thereof” (NEUROCRINE BIOSCIENCES, INC., priority 2014, dated 2017)
